Experimental data taken from patent US9681668B2, “Control of plant diseases and enhancing plant growth using a combination of a Trichoderma virens species and a rhizosphere competent Trichoderma harzianum species” (priority 2008, dated 2017).

Tests used:
Format in all cases: in vivo
[1] = test system: Pythium aphanidermatum; test: Example 6: cucumber seed coating against Pythium aphanidermatum damping-off; conditions: P. aphanidermatum inoculum, greenhouse
Protocol: Cucumber, Cucumis sativus, var Marketmore 76 seeds were coated with T harzianum and/or T. virens, or mefenoxam as described by Pill et al. (Pill et. al., Scientia Horticulturae 121:54-62 (2009), which is hereby incorporated by reference in its entirety). Seeds were planted into flats with or without P. aphanidermatum inoculum. The experiment was conducted in a greenhouse with natural lighting and temperature settings of 25/22° C. (day/night). The numbers of seedlings emerged were recorded daily until there was no increase for two consecutive days. Diseased plants were recorded as either pre- (no seedling emergence) or post-emergent (shoot lodging).

[2] = test system: Phytophthora cinnamomi; test: Example 1: soil treatment of boxwoods inoculated with P. cinnamomi; conditions: boxwood; for Marketability: 1(dead)-5(excellent) Scale: G41 8 oz, mefenoxam 1 oz/100 gal, mean of 10
Protocol: (§1) Except for the non-inoculated controls, each plant was treated with P. cinnamomi inoculum to induce disease. Boxwood plants were obtained from a local nursery and placed into a 6 inch diameter pot containing pine bark: peat (3:1 volume:volume) potting media. The medium was amended with 14 lb of 17-7-12 Osmocote fertilizer per cubic yard of mix.
(§2) Inoculum of P. cinnamomi was grown on sterilized rice grains for 14 days at 24-26° C. prior to inoculation. To treat the plants with the pathogen inoculum, four holes were punched equidistant around the root ball, and four colonized rice grains were inserted in each hole. Each of the test materials was applied at the specified rate to the soil surface, using a 2.5 pint hand held sprayer. The chemical standard, mefenoxam (Subdue®), was applied to the soil surface 24 hours after the plant roots were inoculated with P. cinnamomi inoculum. T22 and G41 were applied to the soil surface 72 hours prior to root inoculation with P. cinnamomi.
(§3) A marketability rating was determined for each plant at one day after inoculation (DAI) with P. cinnamomi, 22 days DAI, and 54 days DAI. Using the following scale, each plant was rated by three researchers and the mean value was determined for each plant: • 1: Dead plants • 2: Poor, unsalable (severe chlorosis and poor top growth) • 3: Moderate, salable (slight chlorosis and/or stunting; plant growth between 2 and 4) • 4: Salable (few individual leaves with chlorosis, green foliage; plant growth between 3 and 5) • 5: Excellent health, salable (no chlorosis; optimum top growth)
(§4) At 1, 22, and 54 DAI, plant height was measured from the crown to the highest point of the plant. Dry root weight and fresh shoot weight were determined at 22 and 54 DAI.
(§5) At 22 DAI, a subset of plants from each treatment were removed and examined. Plants were removed from the pots, and excess soil was carefully brushed from the roots. Above ground portions (shoots) were cut away from the below ground portions and dried in an oven. Dry root weights and fresh shoot weights were recorded. At 54 DAI, the experiment was terminated; the remaining plants were treated as above to determine dry root and shoot weights. Data were subjected to analysis of variance and treatment means were separated by Student-Newman-Keuls test at P=0.05.

[3] = test system: Phytophthora nicotianae; test: Example 3: spray treatment of azaleas challenged with Phytophthora nicotianae; conditions: azalea, P. nicotianae; for Dry Root Weight / Fresh Shoot Weight: mean of 5; for Marketability: 1(dead)-5(excellent) Scale: G41 4 oz, T22 4 oz, mefenoxam 1 oz/100 gal; for Marketability: 1(dead)-5(excellent) Scale / Height: mean of 10
Protocol: as §2, §3, §4, §5
Except for the non-inoculated controls, each plant was treated with P. nicotianae inoculum to induce disease. The methodology for this test was identical to that described in Example 1.

[4] = test system: Fusarium oxysporum f. sp. lycopersici; test: Example 8 Experiment 2: soil drench of tomato seedlings challenged with Fusarium oxysporum (T12 and G41); conditions: 28 DAI, biologicals 4 oz, mefenoxam 1 oz/100 gal, mean of 14 plants
Protocol: (§6) Tomato, Lycopersicon esculentum, var esculentum ‘Beefsteak’, seedlings were subjected to the soil drench treatments set forth in Table 13. Except for the non-inoculated controls, each plant was treated with inoculum of the pathogen F. oxysporum f. sp. lycopersici to induce disease.
(§7) Tomatoes were started in 128-cell flats from seeds in a general purpose, peat-based growing medium. Plants were watered with a 100 ppm solution of 20-20-20 water-soluble plant food (Jack's Classic). At 4-5 days after planting, the seedlings were drenched with the biological materials mixed in water. Seedlings not receiving treatments at this time were treated only with the blank formulation (without Trichoderma).
(§8) Inoculum of F. oxysporum was grown on sterilized rice grains for 7 days at 24-26° C. The rice was uniformly blended into growing medium at a rate of 5% (weight: weight). Seven day old tomato seedlings were transplanted into 4 inch pots that contained the pathogen inoculum on rice. A set of untreated control seedlings were transplanted into pots containing the growing medium plus uninoculated rice. […]
Plants were maintained in a growing room at 20-24° C. under a 12 hour light: dark cycle. […] The material was dried in an oven at 60° C. until completely dry (approximately 24 hours) and the weights recorded. […] Significant differences between treatment means were determined using Tukey's HSD test at P=0.05. […]

[5] = test system: Fusarium oxysporum f. sp. lycopersici; test: Example 4: soil drench of tomato seedlings challenged with Fusarium oxysporum; conditions: 28 DAI, biologicals 4 oz, mefenoxam 1 oz/100 gal, mean of 28 plants
Protocol: as §6, §7, §8
Plants were maintained in a growing room at 20-24° C. under a 12 hour light: dark cycle. […] The material was dried in an oven at 60° C. until completely dry (approximately 24 hours) and the weights recorded. […] Significant differences between treatment means were determined using Tukey's HSD test at P=0.05.

[6] = test system: Rhizoctonia solani; test: Example 7: soil drench of tomato seedlings challenged with Rhizoctonia solani; conditions: R. solani, 23 DAI, biologicals 4 oz, mefenoxam 1 oz/100 gal, mean of 28 plants
Protocol: as §6, with “13, except that there were no untreated control plants.” for “13.”, “R. solani” for “F. oxysporum f. sp. lycopersici”
Tomato seedlings were grown and treated as described above in Example 2. Sterile rice was inoculated with agar plugs from PDA Petri plates containing growing colonies of R. solani at a rate of one colonized PDA plate/500 g rice. Rice was incubated for 10 days at 24-26° C. Infested rice was uniformly blended into the growing medium at a rate of 5% (weight: weight).
Tomato seedlings were transplanted into 4 inch pots that contained the pathogen inoculum on rice. The untreated check plants became contaminated with an unknown disease and were not included in the analysis. A set of seedlings was drenched with the label rate of mefenoxam to serve as the chemical standard and a set of treated control seedlings was transplanted into medium containing the pathogen.
Plants were maintained in a growing room at 20-24° C. under a 12 hour light: dark cycle. Plants were watered with a nutrient solution as described above. […] The material was dried in an oven at 60° C. until completely dry (approximately 24 hours) and the weights recorded. Data were analyzed as described in Example 2, above.

[7] = test system: Phytophthora cinnamomi; test: Example 2: spray treatment of boxwoods challenged with Phytophthora cinnamomi; conditions: boxwood, P. cinnamomi; for Dry Root Weight / Fresh Shoot Weight: mean of 5; for Marketability: 1(dead)-5(excellent) Scale: G41 4 oz, T22 4 oz, mefenoxam 1 oz/100 gal; for Marketability: 1(dead)-5(excellent) Scale / Height: mean of 10
Protocol: as §1, §2, §3, §4, §5
Except for the non-inoculated controls, each plant was treated with P. cinnamomi inoculum to induce disease. The methodology for this test was identical to that described in Example 1.

[8] = test system: Pythium irregulare; test: Example 5: soil drench of tomato seedlings challenged with Pythium irregulare; conditions: 21 DAI, biologicals 4 oz, mefenoxam 1 oz/100 gal, mean of 28 plants
Protocol: Tomato, Lycopersicon esculentum, var esculentum ‘Beefsteak’, seedlings were subjected to the soil drench treatments set forth in Table 13. Except for the non-inoculated controls, each plant was treated with inoculum of the pathogen Pythium irregulare to induce disease.
(§9) Tomato seedlings were grown and treated as described above in Example 2. Sterile rice was inoculated with a suspension of P. irregulare at the rate of 1 colonized PDA Petri plate/1 liter of sterile water. Rice was incubated for 24 hours at 24-26° C. Infested rice was uniformly blended into the growing medium at a rate of 5% (weight: weight).
(§10) Tomato seedlings were transplanted into 4 inch pots that contained the pathogen inoculum on rice. A set of untreated control seedlings were transplanted into pots containing the growing medium plus rice, but no pathogen. A set of seedlings was drenched with the label rate of mefenoxam to serve as the chemical standard and a set of treated control seedlings was transplanted into medium containing the pathogen.
Plants were maintained in a growing room at 20-24° C. under a 12 hour light: dark cycle. Plants were watered with a nutrient solution as described above. […] The material was dried in an oven until completely dry (approximately 24 hours) and the weights recorded.

[9] = test system: Pythium irregulare; test: Example 8 Experiment 1: soil drench of cucumber seedlings challenged with Pythium irregulare (T22 and G21); conditions: 28 DAI, biologicals 4 oz, mefenoxam 1 oz/100 gal, mean of 14 plants
Protocol: Except for the non-inoculated controls, each plant was treated with inoculum of the pathogen Pythium irregulare to induce disease.
as §9, with “Seedlings were” for “Tomato seedlings were”, “described” for “described above”, “Example 4.” for “Example 2.”, “of one” for “of 1”
as §10, with “Cucumber” for “Tomato”
Plants were maintained in a growing room at 20-24° C. under a 12 hour light: dark cycle. At 28 DAI, the experiment was terminated, and the plants were each separated into two parts: root (below ground) and shoot (above ground). The material was dried in an oven at 60° C. until completely dry (approximately 24 hours) and the weights recorded. Data were analyzed as described in Example 4.

COCC(=O)N(c1c(C)cccc1C)[C@H](C)C(=O)OC [Mefenoxam, mefenoxam]
Percent Damping-Off, Pre-emergence [1]: 4.6 bc Percent
Percent Damping-Off, Total [1]: 9.3 c Percent
Marketability: 1(dead)-5(excellent) Scale ([2]; 5/26, T22 4 oz): 5 a
Height ([2]; 5/26, mean of 10): 13.8 a cm
Marketability: 1(dead)-5(excellent) Scale ([2]; 6/21, T22 4 oz): 4.4 a
Dry Root Weight ([2]; 6/21, mean of 5): 16.7 a g
Fresh Shoot Weight ([2]; 6/21, mean of 5): 86.2 a g
Height ([2]; 6/21, mean of 10): 39.7 a cm
Marketability: 1(dead)-5(excellent) Scale ([2]; 7/10, T22 4 oz): 4.7 a
Dry Root Weight ([2]; 7/10, mean of 5): 30.1 a g
Fresh Shoot Weight ([2]; 7/10, mean of 5): 108.3 a g
Height ([2]; 7/10, mean of 10): 39.8 a cm
Dry Root Weight ([3]; 6/21): 44.2 a g
Fresh Shoot Weight ([3]; 6/21): 49.0 ab g
Dry Root Weight ([3]; 7/10): 55.5 ab g
Fresh Shoot Weight ([3]; 7/10): 70.3 ab g
Marketability: 1(dead)-5(excellent) Scale ([3]; Dec. 17, 2004): 4.4 ab
Height ([3]; Dec. 17, 2004): 27.5 ab cm
Marketability: 1(dead)-5(excellent) Scale ([3]; Jan. 6, 2005): 4.4 ab
Height ([3]; Jan. 6, 2005): 35.5 ab cm
Marketability: 1(dead)-5(excellent) Scale ([3]; Nov. 25, 2004): 5 a
Height ([3]; Nov. 25, 2004): 13.7 a cm
Dry Root Weight [4]: 0.03 b g
Dry Shoot Weight [4]: 0.17 c g
Dry Root Weight [5]: 0.12 bc g
Dry Shoot Weight [5]: 0.90 bc g
Dry Root Weight [6]: 0.06 b g
Dry Shoot Weight [6]: 0.42 c g
Dry Root Weight ([7]; 1/13): 96.0 ab g
Fresh Shoot Weight ([7]; 1/13): 81.6 a g
Dry Root Weight ([7]; 12/12): 76.4 a g
Fresh Shoot Weight ([7]; 12/12): 64.8 a g
Marketability: 1(dead)-5(excellent) Scale ([7]; Dec. 12, 2004): 4.6 a
Height ([7]; Dec. 12, 2004): 34.6 ab cm
Marketability: 1(dead)-5(excellent) Scale ([7]; Jan. 13, 2005): 4.7 ab
Height ([7]; Jan. 13, 2005): 36.7 ab cm
Marketability: 1(dead)-5(excellent) Scale ([7]; Nov. 21, 2004): 5.0 a
Height ([7]; Nov. 21, 2004): 13.3 ab cm
Dry Root Weight [8]: 0.04 c g
Dry Shoot Weight [8]: 0.28 g·days
Dry Root Weight [9]: 0.10 abc g
Dry Shoot Weight [9]: 0.66 ab g
